Results on 16 compounds are retold here after patent US8372866B2, “2-aryl and 2-heteroaryl 4H-1-benzopyran-4-one-6-amidino derivatives, new pharmacological agents for the treatment of arthritis, cancer and related pain” (Rottapharm S.p.A., priority 2008, dated 2013).

The test system of assay [1] is mechanical hyperalgesia associated with STZ-induced diabetes. The experiment in a line: STZ-induced diabetes mechanical hyperalgesia, model of neuropathic pain (Randall-Selitto). It counts as in vivo, rat. As to the method: Painful diabetic neuropathy is one of the most common complications of insulin-dependent diabetes in man; in particular, diabetes can be associated with neuropathic pain which fails to be treated by classical analgesics. Streptozotocin (STZ)-induced diabetes in the rat has been increasingly used as a model of painful diabetic neuropathy to assess the efficacies of potential analgesic agents (C. Courteix, Pain 1993, 53, 81-8). A representative compound of the invention was tested for efficacy in reducing mechanical hyperalgesia associated with STZ-induced diabetes in the rat, according to the experimental model as described by the literature. Diabetes was produced with the injection of a single dose (75 mg/Kg i.p.) of STZ. In the following four weeks after the induction of diabetes the clinical symptoms (weight, body and skin temperature, motility and hyperglycemia) progressively developed by the animals, are strictly monitored.
After four weeks, the scores obtained in diabetic rats to various pain stimuli (in particular mechanical stimuli) were greater than those in normal rats, indicating hyperalgesia. The hyperalgesia induced by diabetes was evaluated using the Randall-Selitto method as above described, and quantitated using the analgesimeter. Also in this case, the difference in the mechanical pain threshold between the basal value (generally 230-250 g) and the one tolerated by the animals treated with the drug, is defined as mechanical hyperalgesia. The compound of the invention was administered i.p. (solution, Tween 80, 10% in saline) at different doses, and mechanical hyperalgesia was measured at the reported time, as maximum percent effect (MPE) which represents the difference (%) in pain threshold between the animals treated with the drug and the controls that received only the vehicle, compared with the weight borne by naïf non-diabetic controls. A 100% protection means that the diabetic animals treated with the compound can tolerate the same stimulus (weight) as the naïf non-diabetic animals. MPE higher than 100% means that the diabetic animal treated with the compound can tolerate stimuli (weight) higher than the control non-diabetic animals (hypoalgesia).
In Table 4, the effect of a representative compound of formula (I), in the above described model of neuropathic pain, is compared with some known pharmacological standards used for the clinical treatment of this pathology. In particular, from the MPE data at 0.5 hrs, the doses yielding a protection of 50% (ED50) and 100% (ED100) have been calculated.

Assay [2] deals with T1, recombinant human aggrecanase 1 (ADAMTS-4) (Homo sapiens, UniProt O75173).
T1 construct: ADAMTS-4 aminoacids F213-A579 with C-terminal tag; purchased Invitek GmbH, Berlin
T1 sequence (O75173 213-579): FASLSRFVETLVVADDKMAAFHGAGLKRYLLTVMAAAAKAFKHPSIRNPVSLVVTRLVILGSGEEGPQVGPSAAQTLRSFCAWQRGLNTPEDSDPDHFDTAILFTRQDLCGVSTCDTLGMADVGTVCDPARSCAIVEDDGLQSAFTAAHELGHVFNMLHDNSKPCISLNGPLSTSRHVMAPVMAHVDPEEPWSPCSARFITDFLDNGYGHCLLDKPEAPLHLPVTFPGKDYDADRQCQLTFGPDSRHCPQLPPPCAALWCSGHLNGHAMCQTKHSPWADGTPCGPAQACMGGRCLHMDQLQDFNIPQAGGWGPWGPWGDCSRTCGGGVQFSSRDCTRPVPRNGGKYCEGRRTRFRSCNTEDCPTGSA
The experiment in a line: InviLISA Aggrecanase activity assay, aggrecanase 1. It counts as biochemical. The settings on record: for inhibition at 10 µM: inhibitors tested at 10 μM final concentration. On the procedure:
(§1) The InviLISA Aggrecanase activity assay (Invitek GmbH, Berlin) was used to screen and characterise aggrecanase inhibitors. The assay was carried out in two steps, according to Will et al. (Will H, Dettloff M, Bendzko P, Svenshnikov P, A Quantitative Assay for aggrecanase Activity; 2005, Journal of Biomolecular Techniques, 16 (4), 459-472). A recombinant fragment of human aggrecan interglobular domain (aggrecan-IGD; T331-G458) is first digested with aggrecanase. Proteolytic cleavage of the substrate releases an aggrecan peptide with the N-terminal sequence ARGSVIL (ARGSVIL-peptide), that was then quantified with two monoclonal anti-peptide antibodies (ELISA module). For precise calculation of product, ARGSVIL-peptide standard concentrations were run in parallel.
(§2) 1) Proteolysis of aggrecan-IGD by aggrecanase. Aggrecan-IGD was incubated with standard recombinant human aggrecanase 1 (ADAMTS-4 aminoacids F213-A579 with C-terminal tag) or standard recombinant human aggrecanase 2 (ADAMTS-5 aminoacids S262-G625 with C-terminal tag) in the absence (total enzymatic activity) or presence (modulated enzymatic activity) of inhibitors to be tested. Enzymes were pre-incubated with the inhibitors or the appropriate concentration of diluent as control (DMSO 0.25% final concentration in proteolysis), at 4° C. for 30 min prior to assaying their activity. Five microliters of mix enzyme-inhibitor were added to the substrate (0.1 μM final concentration) in a total volume of 100 μL and incubated for 15 minutes at 37° C. The reaction was terminated with EDTA-containing buffer. The inhibitors were tested at 10 μM final concentration and compounds achieving ≧50% inhibitory effect were evaluated for IC50 calculation, in a range generally extended from 0.1 to 10 μM final concentration.
(§3) 2) Aggrecan peptide ELISA. ARGSVIL-peptide standard, proteolytic digestion of Aggrecan-IGD with standard aggrecanases and test samples were incubated in microtiter wells pre-coated with anti-ARGSVIL-neoepitope antibody. ARGSVIL-peptide is bound to the coated antibody, while other components are removed by washing and aspiration. The bound ARGSVIL-peptide was detected with a second peroxidase-labelled antibody. Any excess of the conjugate was removed by washing and aspiration. The amount of peroxidase bound to different wells was determined in reactions with peroxidase substrate TMB. The reactions are stopped by addition of sulphuric acid solution and absorbance is read at 450 nm in a microtiter plate spectrophotometer.

Assay [3] has as its target T2, recombinant human aggrecanase 2 (ADAMTS-5) (Homo sapiens, UniProt Q9UNA0).
T2 construct: ADAMTS-5 aminoacids S262-G625 with C-terminal tag; purchased Invitek GmbH, Berlin
T2 sequence (Q9UNA0 262-625): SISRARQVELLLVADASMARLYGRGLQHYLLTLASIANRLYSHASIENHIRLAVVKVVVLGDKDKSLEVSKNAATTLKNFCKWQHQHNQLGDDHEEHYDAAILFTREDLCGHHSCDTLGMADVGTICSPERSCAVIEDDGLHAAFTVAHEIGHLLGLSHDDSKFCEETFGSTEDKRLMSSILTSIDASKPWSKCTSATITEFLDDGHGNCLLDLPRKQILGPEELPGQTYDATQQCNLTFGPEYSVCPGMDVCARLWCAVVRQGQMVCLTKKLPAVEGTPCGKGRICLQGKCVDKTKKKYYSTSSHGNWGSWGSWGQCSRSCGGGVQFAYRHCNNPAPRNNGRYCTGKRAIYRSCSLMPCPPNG
The experiment in a line: InviLISA Aggrecanase activity assay, aggrecanase 2. It is filed as biochemical. The settings on record: for inhibition at 10 µM: inhibitors tested at 10 μM final concentration. On the procedure:
as §1, §2, §3

In assay [4] the test system is CFA-induced prolonged inflammation. The experiment in a line: CFA model of chronic inflammatory pain (Randall-Selitto). It counts as in vivo, rat.
[5] abbreviates: 10 mg/Kg IP, NE = not effective.
The mark [6] stands for this setting: 30 mg/Kg IP, NE = not effective.
Setting [7] is: 100 mg/Kg IP, NE = not effective.
Setting [8] is: 300 mg/Kg IP, NE = not effective.

Counter-ions that a name gives are not always drawn.

Regarding `CN(C)CCC=C1c2ccccc2CCc2ccccc21` [Amitriptyline], in assay [1] (3 mg/Kg IP, NE = not effective), the “MPE 0.5 hrs” value came to 44% and the “MPE 1.5 hrs” value is recorded as 40%. For the same compound, in assay [1] (setting [5]), the “MPE 0.5 hrs” value is 68% and the “MPE 1.5 hrs” value came out at 77%. In assay [1] (setting [6]), the “MPE 0.5 hrs” value is 65%, the “MPE 1.5 hrs” value came out at 69% and the “MPE 3 hrs” value was found to be 23%. Further, the ED50 in assay [1] (Rattus norvegicus, IP, calculated from the MPE data at 0.5 hrs, NC = not calculable, read-out: ED50 0.5 hrs) is 3.76 mg/kg.
Take `CC(=N)Nc1ccc2oc(-c3ccc(-n4ccnc4)cc3)c(O)c(=O)c2c1` [Example 5, 2-[(4-imidazol-1-yl)-phenyl]-3-hydroxy-6-[(1-iminoethyl)amino]-4H-1-benzopyran-4-one hydrochloride]: the inhibition at 10 µM in assay [2] came to 30%. For the same compound, the IC50 in assay [3] amounted to 0.87 µM.
For the compound `N=C(CC1CC1)Nc1ccc2oc(-c3ccc(-n4ccnc4)cc3)c(O)c(=O)c2c1` [Example 6, 2-[(4-imidazol-1-yl)-phenyl]-3-hydroxy-6-[(1-iminoethyl-2-cyclopropyl)amino]-4H-1-benzopyran-4-one dihydrochloride monohydrate], the IC50 in assay [2] was found to be 1.61 µM; in assay [3], 0.2 µM.
Take `COCCC(=N)Nc1ccc2oc(-c3ccc(-n4ccnc4)cc3)c(O)c(=O)c2c1` [Example 7]: the inhibition at 10 µM in assay [2] turned out to be 31%. Besides, the IC50 in assay [3] amounted to 2.4 µM.
`CC(=N)Nc1ccc2oc(-c3cccc(-n4ccnc4)c3)c(O)c(=O)c2c1` [Example 8, 2-[(3-(imidazol-1-yl)-phenyl]-3-hydroxy-6-[(1-iminoethyl)amino]-4H-1-benzopyran-4-one dihydrochloride]: the IC50 in assay [3] was determined as 10 µM.
Regarding `CC(=N)Nc1ccc2oc(-c3ccc(S(C)(=O)=O)cc3)c(O)c(=O)c2c1` [Example 9, 2-(4-methansulfonylphenyl)-3-hydroxy-6-[(1-iminoethyl)amino]-4H-1-benzopyran-4-one hydrochloride], the inhibition at 10 µM in assay [2] was 20%. For the same compound, the IC50 in assay [3] stood at 11.5 µM.
`CC(=N)Nc1ccc2oc(-c3ccc(O)c(O)c3)c(O)c(=O)c2c1` [Example 10, 2-(3,4-dihydroxyphenyl)-3-hydroxy-6-[(1-iminoethyl)amino]-4H-1-benzopyran-4-one hydrochloride]: the IC50 in assay [2] came out at 0.61 µM; in assay [3] it was 3.5 µM.
Consider `N=C(CC1CC1)Nc1ccc2oc(-c3ccc(O)cc3)c(O)c(=O)c2c1` [Example 11, 2-(4-hydroxyphenyl-3-hydroxy-6-[(1-iminoethyl-2-cyclopropyl)amino]-4H-1-benzopyran-4-one hydrochloride], for which the inhibition at 10 µM in assay [2] is 30%; in assay [3], 40%.
On to `COc1ccc(-c2oc3ccc(NC(C)=N)cc3c(=O)c2O)cc1` [Example 12, 2-(4-methoxyphenyl)-3-hydroxy-6-[(1-iminoethyl)amino]-4H-1-benzopyran-4-one hydrochloride monohydrate], for which the IC50 worked out at 2.7 µM in assay [2] and 1.12 µM in assay [3].
In the case of `COc1ccc(-c2oc3ccc(NC(=N)CO)cc3c(=O)c2O)cc1` [Example 13, 2-(4-methoxyphenyl)-3-hydroxy-6-[(1-iminoethyl-2-hydroxy)amino]-4H-1-benzopyran-4-one hydrochloride monohydrate], the inhibition at 10 µM in assay [2] stood at 0%. In assay [3], the IC50 is 2.8 µM.
The matching figures for `COc1ccc(C(=N)Nc2ccc3oc(-c4ccc(OC)cc4)c(O)c(=O)c3c2)cc1` [Example 14, N-[2-(4-methoxyphenyl)-3-hydroxy-4H-1-benzopyran-4-one-6-yl]-4-methoxybenzene carboxiimidamide hydrochloride]: 0% and 10 µM.
In the case of `CC(=N)Nc1ccc2oc(-c3ccc4c(c3)CCO4)c(O)c(=O)c2c1` [Example 15, 2-(dihydrobenzofuran-5-yl)-3-hydroxy-6-[(1-iminoethyl)amino]-4H-1-benzopyran-4-one hydrochloride], the inhibition at 10 µM in assay [2] amounted to 10%. Also, the IC50 in assay [3] is 15 µM.
With `CC(=N)Nc1ccc2oc(-c3ccc(O)nc3)c(O)c(=O)c2c1` [Example 21, 2-(6-hydroxypyridin-3-yl)-3-hydroxy-6-[(1-iminoethyl)amino]-4H-1-benzopyran-4-one hydrochloride], the inhibition at 10 µM in assay [3] came to 20%.
Still for that read-out and setting: with `CC(=N)Nc1ccc2oc(-c3ccc(OCc4ccccc4)cc3)c(O)c(=O)c2c1` [Example 22, 2-[(4-benzyloxy-phenyl]-3-hydroxy-6-[(1-iminoethyl)amino]-4H-1-benzopyran-4-one hydrochloride] the figure was 34%.
On to `NCC1(CC(=O)O)CCCCC1` [Gabapentin], for which the “MPE 0.5 hrs” value was 39% in assay [1] (setting [6]), 55% in assay [1] (setting [7]) and 47% in assay [1] (setting [8]). The “MPE 1.5 hrs” value in assay [1] (setting [6]) is recorded as 41%; in assay [1] (setting [7]), 38%; in assay [1] (setting [8]) it was 36%.
Take `CN1C(C(=O)Nc2ccccn2)=C(O)c2ccccc2S1(=O)=O` [Piroxicam, reference compound]: in assay [4] (3 mg/Kg IP, NE = not effective), the “MPE 0.5 hrs” value came to 25% and the “MPE 1.5 hrs” value is recorded as 40%. Besides, in assay [4] (setting [5]), the “MPE 0.5 hrs” value stood at 46%, the “MPE 1.5 hrs” value is 73% and the “MPE 3 hrs” value is 62%. In addition, in assay [4] (setting [6]), the “MPE 0.5 hrs” value is on record as 102%, the “MPE 1.5 hrs” value came out at 111%, the “MPE 3 hrs” value is 54% and the “MPE 6 hrs” value worked out at 24%. Moreover, the “MPE 24 hrs” value in assay [4] (setting [6]) is 38%. Also, the “ED100 0.5 hrs” value in assay [4] (IP, calculated from the MPE data at 0.5 hrs) was 34.33 mg/kg. In addition, in assay [4] (Rattus norvegicus, IP, calculated from the MPE data at 0.5 hrs, read-out: ED50 0.5 hrs), the 50% effective dose (ED50) was 7.65 mg/kg.
